Laboratory results: ChEMBL document CHEMBL3351763, “Design and synthesis of novel small molecule CCR2 antagonists: evaluation of 4-aminopiperidine derivatives” (Bioorg Med Chem Lett, 2014)
Each block holds one compound with its values, some of them ahead of it.

Key:
[1] = biological target: T1, C-C chemokine receptor type 2 (Homo sapiens, UniProt P41597); experiment: Displacement of [125I]CCL2 from CCR2 in human U2OS cell membranes at 1 uM by radioligand displacement assay
Target sequence in this assay (P41597 whole entry, looked up): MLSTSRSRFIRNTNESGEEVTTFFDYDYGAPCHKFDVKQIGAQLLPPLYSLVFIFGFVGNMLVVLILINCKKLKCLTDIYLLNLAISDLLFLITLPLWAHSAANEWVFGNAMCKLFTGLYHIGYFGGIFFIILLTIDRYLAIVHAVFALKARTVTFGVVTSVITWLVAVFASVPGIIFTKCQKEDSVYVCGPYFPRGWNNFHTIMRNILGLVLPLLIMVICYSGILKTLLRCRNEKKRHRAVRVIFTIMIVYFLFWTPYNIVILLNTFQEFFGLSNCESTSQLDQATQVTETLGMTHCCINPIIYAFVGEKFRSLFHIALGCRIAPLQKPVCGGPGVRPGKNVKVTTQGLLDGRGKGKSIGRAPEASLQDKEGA

[2] = biological target: T1, C-C chemokine receptor type 2; experiment: Displacement of [125I]CCL2 from CCR2 in human U2OS cell membranes by radioligand displacement assay
Target sequence in this assay (P41597 whole entry): as the sequence (P41597 whole entry, looked up) above

SMILES: COc1cccc(OC)c1C1CCC(N2CCC(NC(=O)CNC(=O)c3cccc(C(F)(F)F)c3)CC2)CC1 (stereo not given)
inhibition [1]: 42%

SMILES: O=C(CNC(=O)c1cccc(C(F)(F)F)c1)NC1CCN(C2CCc3ccccc3C2)CC1 (stereo not given)
inhibition [1]: 24%

SMILES: O=C(NCC(=O)N1CCC(NC2CCC(c3ccccc3)CC2)CC1)c1cccc(C(F)(F)F)c1 (stereo not given)
inhibition [1]: 31%

SMILES: Cc1ccc(C2CCC(N3CCC(NC(=O)CNC(=O)c4cccc(C(F)(F)F)c4)CC3)CC2)cc1 (stereo not given)
inhibition [1]: 38%

SMILES: COc1cc(OC)cc(C2CCC(N3CCC(NC(=O)CNC(=O)c4cccc(C(F)(F)F)c4)CC3)CC2)c1 (stereo not given)
inhibition [1]: 41%

SMILES: O=C(CNC(=O)c1cccc(C(F)(F)F)c1)NC1CCN(C2CCC(c3ccccc3)CC2)CC1 (stereo not given)
Ki [2]: 74 nM

SMILES: O=C(CNC(=O)c1cccc(C(F)(F)F)c1)NC1CCN(C2CCC(c3ccc(O)cc3)CC2)CC1 (stereo not given)
Ki [2]: 139 nM

Continued, values first:

inhibition [1]: 0%
SMILES: O=C(CNC(=O)c1cccc(C(F)(F)F)c1)NC1CCN(Cc2ccc(Cl)cc2)CC1

inhibition [1]: 26%
SMILES: Cc1ccccc1C1CCC(N2CCC(NC(=O)CNC(=O)c3cccc(C(F)(F)F)c3)CC2)CC1 (stereo not given)

inhibition [1]: 6%
SMILES: O=C(CNC(=O)c1cccc(C(F)(F)F)c1)NC1CCN(CCCc2ccccc2)CC1

Ki [2]: 90 nM
SMILES: O=C(CNC(=O)c1cccc(C(F)(F)F)c1)NC1CCN(C2CCC(c3ccc4c(c3)OCO4)CC2)CC1 (stereo not given)

Ki [2]: 270 nM
SMILES: Cc1cccc(C2CCC(N3CCC(NC(=O)CNC(=O)c4cccc(C(F)(F)F)c4)CC3)CC2)c1 (stereo not given)

inhibition [1]: 10%
SMILES: O=C(CNC(=O)c1cccc(C(F)(F)F)c1)NC1CCN(C2CCCC(c3ccccc3)C2)CC1 (stereo not given)

inhibition [1]: 12%
SMILES: O=C(CNC(=O)c1cccc(C(F)(F)F)c1)NC1CCN(Cc2cn(-c3ccccc3)nn2)CC1

Ki [2]: 66 nM
SMILES: COc1cccc(C2CCC(N3CCC(NC(=O)CNC(=O)c4cccc(C(F)(F)F)c4)CC3)CC2)c1 (stereo not given)
